Experimental data as given in the Kinase Knowledgebase extract (Sharma et al. 2016).
pIC50: −log10 of the molar value.

target: MAPK14 (human) (UniProt Q16539); test: Assessment of MAPK14 Kinase Activity
Sequence (Q16539 whole entry, looked up): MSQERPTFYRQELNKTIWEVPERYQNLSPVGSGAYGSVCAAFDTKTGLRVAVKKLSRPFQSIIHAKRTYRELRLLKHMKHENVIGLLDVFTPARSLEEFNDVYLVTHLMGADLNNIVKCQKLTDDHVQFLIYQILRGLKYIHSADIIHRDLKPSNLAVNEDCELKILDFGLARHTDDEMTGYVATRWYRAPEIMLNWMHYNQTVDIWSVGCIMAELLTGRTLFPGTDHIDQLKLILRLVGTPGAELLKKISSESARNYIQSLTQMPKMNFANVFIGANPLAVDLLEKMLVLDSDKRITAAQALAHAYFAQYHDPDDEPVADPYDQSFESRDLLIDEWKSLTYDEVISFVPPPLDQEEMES

`CCOc1ccc(-c2cc(NC(=O)Nc3sc(C(C)(C)C)cc3C(=O)N3CCN(C)C(=O)C3(C)C)ccc2C)cn1` and `COc1ccc(-c2cc(NC(=O)Nc3sc(C(C)(C)C)cc3C(=O)N3CCN(C)C(=O)C3(C)C)ccc2C)cn1` cannot be ordered by pIC50: over 7.00 for the first, over 7.00 for the second.

`Cc1ccc(NC(=O)Nc2sc(C(C)(C)C)cc2C(=O)N2CCC(=O)N(C)CC2)cc1-c1ccc(N2CCOCC2)cn1` and `Cc1ccc(NC(=O)Nc2sc(C(C)(C)C)cc2C(=O)N2CCNC(=O)C2(C)C)cc1-c1ccc(N2CCOCC2)cn1` cannot be ordered by pIC50: over 7.00 for the first, over 7.00 for the second.

`Cc1ncc(NC(=O)Nc2sc(C(C)(C)C)cc2C(=O)N2CCNC(=O)C2(C)C)cc1-c1ccc(N2CCOCC2)nc1` and `Cc1ccc(NC(=O)Nc2sc(C(C)(C)C)cc2C(=O)N2CCNC(=O)C2(C)C)cc1-c1ccc(N2CCOCC2)nc1` cannot be ordered by pIC50: over 7.00 for the first, over 7.00 for the second.

`Cc1ccc(NC(=O)Nc2sc(C(C)(C)C)cc2C(=O)N2CCNC(=O)CC2)cc1-c1cccnc1` and `CC(=O)N1CCN(C(=O)c2cc(C(C)(C)C)sc2NC(=O)Nc2ccc(C)c(-c3cccnc3)c2)CC1` cannot be ordered by pIC50: over 7.00 for the first, over 7.00 for the second.

`Cc1ccc(-c2ccc(N3CCOCC3)nc2)cc1NC(=O)Nc1sc(C(C)(C)C)cc1C(=O)N1CCNC(=O)C1(C)C` and `Cc1c(NC(=O)Nc2sc(C(C)(C)C)cc2C(=O)N2CCNC(=O)C2(C)C)cccc1-c1ccc(N2CCOCC2)nc1` cannot be ordered by pIC50: over 7.00 for the first, over 7.00 for the second.

`Cc1ccc(NC(=O)Nc2sc(C(C)(C)C)cc2C(=O)N2CCN(C)C(=O)C2(C)C)cc1-c1ccc(NS(C)(=O)=O)nc1` and `Cc1ccc(NC(=O)Nc2sc(C(C)(C)C)cc2C(=O)N2CCN(C)C(=O)C2(C)C)cc1-c1ccc(C(C)O)nc1` (stereo not given) cannot be ordered by pIC50: over 7.00 for the first, over 7.00 for the second.

`CC(C)(C)c1cc(C(=O)N2CCNC(=O)C2(C)C)c(NC(=O)Nc2cccc(-c3cnco3)c2)s1` and `CC(C)(C)c1cc(C(=O)N2CCNC(=O)C2(C)C)c(NC(=O)Nc2cccc(-c3ccncc3)c2)s1` cannot be ordered by pIC50: over 7.00 for the first, over 7.00 for the second.

`Cc1ccc(NC(=O)Nc2sc(C(C)(C)C)cc2C(=O)N2CCN(C)C(=O)C2(C)C)cc1-c1ccc(C(C)N2CCOCC2)nc1` (stereo not given) and `Cc1ccc(NC(=O)Nc2sc(C(C)(C)C)cc2C(=O)N2CCN(C)C(=O)C2(C)C)cc1-c1ccc(CN2CCCC2)nc1` cannot be ordered by pIC50: over 7.00 for the first, over 7.00 for the second.

`CC(C)(C)c1cc(C(=O)N2CCNC(=O)C2(C)C)c(NC(=O)Nc2ccc(F)c(-c3ccc(OCCN4CCOCC4)nc3)c2)s1` and `CC(C)(C)c1cc(C(=O)N2CCNC(=O)C2(C)C)c(NC(=O)Nc2cccc(-c3ccc(OCCN4CCOCC4)nc3)c2)s1` cannot be ordered by pIC50: over 7.00 for the first, over 7.00 for the second.

`Cc1ccc(NC(=O)Nc2sc(C(C)(C)C)cc2C(=O)N2CCN(C)C(=O)C2(C)C)cc1-c1ccc(-n2cccn2)nc1` and `Cc1ccc(NC(=O)Nc2sc(C(C)(C)C)cc2C(=O)N2CCN(C)C(=O)C2(C)C)cc1-c1ccc(-n2ccnc2)nc1` cannot be ordered by pIC50: over 7.00 for the first, over 7.00 for the second.

`CCNC(=O)c1ccc(-c2cc(NC(=O)Nc3sc(C(C)(C)C)nc3C(=O)N3CCN(C)C(=O)C3(C)C)ccc2C)cn1` and `CCNC(=O)c1ccc(-c2cc(NC(=O)Nc3sc(C(C)(C)C)cc3C(=O)N3CCN(C)C(=O)C3(C)C)ccc2C)cn1` cannot be ordered by pIC50: over 7.00 for the first, over 7.00 for the second.

First: CCN(CC)Cc1ccc(-c2cc(NC(=O)Nc3sc(C(C)(C)C)cc3C(=O)N3CCN(C)C(=O)C3(C)C)ccc2C)cn1
Second: CCc1ccc(-c2cc(NC(=O)Nc3sc(C(C)(C)C)cc3C(=O)N3CCN(CCN(C)C)C(=O)C3(C)C)ccc2C)cn1
The pIC50 of the first is higher: over 7.00 for the first, 6.00 to 7.00 for the second.

`Cc1ccc(NC(=O)Nc2sc(C(C)(C)C)cc2C(=O)N2CCNC(=O)C2(C)C)cc1N1C(=O)CN(C)C1=O` and `Cc1ccc(NC(=O)Nc2sc(C(C)(C)C)cc2C(=O)N2CCNC(=O)C2(C)C)cc1-c1c(C)noc1C` cannot be ordered by pIC50: over 7.00 for the first, over 7.00 for the second.

`Cc1nnc(CN2CCN(C(=O)c3cc(C(C)(C)C)sc3NC(=O)Nc3ccc(C)c(-c4ccncc4)c3)C(C)(C)C2=O)o1` and `COC(=O)CN1CCN(C(=O)c2cc(C(C)(C)C)sc2NC(=O)Nc2ccc(C)c(-c3ccncc3)c2)C(C)(C)C1=O` cannot be ordered by pIC50: over 7.00 for the first, over 7.00 for the second.

Compared with `Cc1ccc(NC(=O)Nc2sc3c(c2C(=O)N2CCN(C)C(=O)C2(C)C)CCOC3)cc1-c1ccc(CN2CCOCC2)nc1`, `Cc1ccc(NC(=O)Nc2sc(C(C)(C)C)nc2C(=O)N2CCN(C)C(=O)C2(C)C)cc1-c1ccc(CN2CCOCC2)nc1` is higher in pIC50: 6.00 to 7.00 for the first, over 7.00 for the second.

`Cc1ccc(NC(=O)Nc2sc(C(C)(C)C)cc2C(=O)N2CCNC(=O)C2(C)C)cc1-c1ccc(OC2CCOCC2)nc1` and `COc1ccc(-c2cc(NC(=O)Nc3sc(C(C)(C)C)cc3C(=O)N3CCNC(=O)C3(C)C)ccc2C)cn1` cannot be ordered by pIC50: over 7.00 for the first, over 7.00 for the second.

`CC(C)(C)c1cc(C(=O)N2CCNC(=O)C2(C)C)c(NC(=O)Nc2cccc(-c3ccc(OCCCc4ccccn4)nc3)c2)s1` and `CN(C)CCCOc1ccc(-c2cccc(NC(=O)Nc3sc(C(C)(C)C)cc3C(=O)N3CCNC(=O)C3(C)C)c2)cn1` cannot be ordered by pIC50: over 7.00 for the first, over 7.00 for the second.

`COCCNC(=O)c1ccc(-c2cc(NC(=O)Nc3sc(C(C)(C)C)cc3C(=O)N3CCN(C)C(=O)C3(C)C)ccc2C)cn1` and `Cc1ccc(NC(=O)Nc2sc(C(C)(C)C)cc2C(=O)N2CCN(C)C(=O)C2(C)C)cc1-c1ccc(C(C)(C)O)nc1` cannot be ordered by pIC50: over 7.00 for the first, over 7.00 for the second.

`Cc1ccc(NC(=O)Nc2cn(C(C)(C)C)nc2C(=O)N2CCNC(=O)C2(C)C)cc1-c1ccc(CN2CCOCC2)nc1` and `CCc1ccc(-c2cc(NC(=O)Nc3cn(C(C)(C)C)nc3C(=O)N3CCNC(=O)C3(C)C)ccc2C)cn1` cannot be ordered by pIC50: over 7.00 for the first, over 7.00 for the second.

`CC(C)(C)c1cc(C(=O)N2CCNC(=O)C2(C)C)c(NC(=O)Nc2cccc(-c3ccnc(F)c3)c2)s1` and `Cc1ccc(NC(=O)Nc2sc(C(C)(C)C)cc2C(=O)N2CCNC(=O)C2(C)C)cc1-c1ccc(F)nc1` cannot be ordered by pIC50: over 7.00 for the first, over 7.00 for the second.

`CCc1ccc(-c2cc(NC(=O)Nc3sc(C(C)(C)C)cc3C(=O)N3CCN(C)C(=O)C3(C)C)ccc2C)nc1` and `Cc1ccc(NC(=O)Nc2sc(C(C)(C)C)cc2C(=O)N2CCNC(=O)C2(C)C)cc1-c1ccc(CN2CCOCC2)cn1` cannot be ordered by pIC50: over 7.00 for the first, over 7.00 for the second.

`Cc1ccc(NC(=O)Nc2sc(C(C)(C)C)cc2C(=O)N2CCN(C)C(=O)C2(C)C)cc1-c1ccc(CN2CCN(C)CC2)nc1` and `Cc1ccc(NC(=O)Nc2sc(C(C)(C)C)cc2C(=O)N2CCNC(=O)C2(C)C)cc1-c1ccc(N2CCN(C)CC2)nc1` cannot be ordered by pIC50: over 7.00 for the first, over 7.00 for the second.

`Cc1ccc(NC(=O)Nc2cc(C(C)(C)C)oc2C(=O)N2CCN(C)C(=O)C2(C)C)cc1-c1ccc(CN2CCOCC2)cn1` and `Cc1ccc(NC(=O)Nc2sc(C(C)(C)C)nc2C(=O)N2CCN(C)C(=O)C2(C)C)cc1-c1ccc(CN2CCOCC2)cn1` cannot be ordered by pIC50: over 7.00 for the first, over 7.00 for the second.

`Cc1ccc(NC(=O)Nc2sc(C(C)(C)C)cc2C(=O)N2CCNC(=O)C2(C)C)cc1C#CCN1CCN(C)CC1` and `Cc1ccc(NC(=O)Nc2sc(C(C)(C)C)cc2C(=O)N2CCNC(=O)C2(C)C)cc1C#CCOC1CCOCC1` cannot be ordered by pIC50: over 7.00 for the first, over 7.00 for the second.

`Cc1ccc(NC(=O)Nc2sc(C(C)(C)C)cc2C(=O)N2CCNC(=O)C2(C)C)cc1-c1ccncc1` and `Cc1ccc(NC(=O)Nc2sc(C(C)(C)C)cc2C(=O)N2CCNC(=O)C2(C)C)cc1-c1cc[n+]([O-])cc1` cannot be ordered by pIC50: over 7.00 for the first, over 7.00 for the second.

`COc1ccc(-c2cc(NC(=O)Nc3cc(C(C)(C)C)sc3C(=O)N3CCN(C)C(=O)C3(C)C)cc(F)c2C)cn1` and `COc1ccc(-c2cc(NC(=O)Nc3sc(C(C)(C)C)cc3C(=O)N3CCN(C)C(=O)C3(C)C)cc(F)c2C)cn1` cannot be ordered by pIC50: over 7.00 for the first, over 7.00 for the second.

`CCc1ccc(-c2cc(NC(=O)Nc3cn(C(C)(C)C)nc3C(=O)N3CCN(C)C(=O)C3(C)C)ccc2C)cn1` and `Cc1ccc(NC(=O)Nc2cn(C(C)(C)C)nc2C(=O)N2CCN(C)C(=O)C2(C)C)cc1-c1ccc(C(C)C)nc1` cannot be ordered by pIC50: over 7.00 for the first, over 7.00 for the second.

`COc1ccc(-c2cc(C)cc(NC(=O)Nc3sc(C(C)(C)C)cc3C(=O)N3CCNC(=O)C3(C)C)c2)cn1` and `CCc1ccc(-c2cc(NC(=O)Nc3sc(C(C)(C)C)cc3C(=O)N3CCNC(=O)C3(C)C)cc(F)c2C)cn1` cannot be ordered by pIC50: over 7.00 for the first, over 7.00 for the second.

First: Cc1ccc(NC(=O)Nc2sc(C(C)(C)C)cc2C(=O)N2CCN(C)C(=O)C2(C)C)cc1-c1ccc(C[N+]2([O-])CCOCC2)[n+]([O-])c1
Second: COc1ccc(-c2cc(NC(=O)Nc3cc(C(C)(C)C)sc3C(=O)N3CCN(C)C(=O)C3(C)C)ccc2C)cn1
The pIC50 of the first is lower: 6.00 to 7.00 for the first, over 7.00 for the second. The second is the more potent here.

`Cc1ccc(NC(=O)Nc2sc(C(C)(C)C)cc2C(=O)N2CCNC(=O)C2(C)C)cc1-c1ccc(NCC(C)C)nc1` and `Cc1ccc(NC(=O)Nc2sc(C(C)(C)C)cc2C(=O)N2CCNC(=O)C2(C)C)cc1-c1ccc(C(C)O)nc1` (stereo not given) cannot be ordered by pIC50: over 7.00 for the first, over 7.00 for the second.

`CC(=O)c1ccc(-c2cc(NC(=O)Nc3sc(C(C)(C)C)cc3C(=O)N3CCNC(=O)C3(C)C)ccc2C)cn1` and `Cc1ccc(NC(=O)Nc2sc(C(C)(C)C)cc2C(=O)N2CCNC(=O)C2(C)C)cc1-c1ccc(N2CCC(N)C2)nc1` (stereo not given) cannot be ordered by pIC50: over 7.00 for the first, over 7.00 for the second.

`Cc1ccc(NC(=O)Nc2sc(C(C)(C)C)cc2C(=O)N2CCNC(=O)C2(C)C)cc1-c1ccc(N2CCC(N(C)C)C2)nc1` (stereo not given) and `Cc1ccc(NC(=O)Nc2sc(C(C)(C)C)cc2C(=O)N2CCNC(=O)C2(C)C)cc1-c1cnc(N2CCOCC2)nc1` cannot be ordered by pIC50: over 7.00 for the first, over 7.00 for the second.

`Cc1ccc(NC(=O)Nc2sc(C(C)(C)C)cc2C(=O)N2CCNC(=O)C2(C)C)cc1-c1cccc[n+]1[O-]` and `Cc1ccc(NC(=O)Nc2sc(C(C)(C)C)cc2C(=O)N2CCNC(=O)C2(C)C)cc1-c1ccccn1` cannot be ordered by pIC50: over 7.00 for the first, over 7.00 for the second.

`Cc1ccc(NC(=O)Nc2cn(C(C)(C)C)nc2C(=O)N2CCNC(=O)C2(C)C)cc1-c1ccc(C(C)C)nc1` and `CCNC(=O)c1ccc(-c2cc(NC(=O)Nc3cn(C(C)(C)C)nc3C(=O)N3CCN(C)C(=O)C3(C)C)ccc2C)cn1` cannot be ordered by pIC50: over 7.00 for the first, over 7.00 for the second.

`COc1ccc(-c2cc(NC(=O)Nc3cc(C(C)(C)C)sc3C(=O)N3CCNC(=O)C3(C)C)ccc2C)cn1` and `Cc1nnc(-c2ccc(-c3cc(NC(=O)Nc4cc(C(C)(C)C)sc4C(=O)N4CCN(C)C(=O)C4(C)C)ccc3C)cn2)o1` cannot be ordered by pIC50: over 7.00 for the first, over 7.00 for the second.

`Cc1ccc(NC(=O)Nc2sc(C(C)(C)C)cc2C(=O)N2CCNC(=O)CC2)cc1-c1cnc(N2CCOCC2)nc1` and `Cc1ccc(NC(=O)Nc2cn(C(C)(C)C)nc2C(=O)N2CCN(C)C(=O)C2(C)C)cc1-c1ccc(N2CCOCC2)cn1` cannot be ordered by pIC50: over 7.00 for the first, over 7.00 for the second.

`COc1ccc(-c2cc(NC(=O)Nc3sc(C(C)(C)C)cc3C(=O)N3CCN(C)C(=O)C3(C)C)c(F)cc2C)cn1` and `Cc1nnc(-c2ccc(-c3cc(NC(=O)Nc4sc(C(C)(C)C)nc4C(=O)N4CCN(C)C(=O)C4(C)C)ccc3C)cn2)o1` cannot be ordered by pIC50: over 7.00 for the first, over 7.00 for the second.

`CN1CCN(CCCOc2ccc(-c3cccc(NC(=O)Nc4sc(C(C)(C)C)cc4C(=O)N4CCNC(=O)C4(C)C)c3)cn2)CC1` showed a pIC50 of over 7.00.
